Measurements published in the NIST ThermoML archive (doi:10.1021/je201014c).
± gives the expanded uncertainty stated by the source.

Details: 101.33 kPa, Liquid; for viscosity: Capillary tube (Ostwald / Ubbelohde) method; for mass density: Vibrating tube method

CN(C)C=O [dimethylformamide]
Details | mass density [kg/m3] | viscosity [mPa·s]
283.15 K | 958.096 ± 0.4 | 1.016 ± 0.0065
288.15 K | 953.346 ± 0.4 | 0.9545 ± 0.0063
293.15 K | 948.584 ± 0.4 | 0.8985 ± 0.006
298.15 K | 943.817 ± 0.4 | 0.8455 ± 0.0058
303.15 K | 939.042 ± 0.4 | 0.799 ± 0.0056
308.15 K | 934.255 ± 0.41 | 0.7553 ± 0.0054
313.15 K | 929.458 ± 0.41 | 0.7172 ± 0.0052
318.15 K | 924.65 ± 0.41 | 0.6826 ± 0.0051
